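Compound exposure: 48 hours, 5 concentrations, 96-well plates. Abbreviation: GI50, concentration required for 50% inhibition of growth.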 Calls of active or inactive are those of the source. No stated cut-off is given here; in the data, active = GI50 up to about 1.1 µM and inactive = higher.
How the values were obtained:
Assay in all cases: DTP human tumour cell line panel, 48 h
[1] = test system: TK-10
[2] = test system: SW-620
[3] = test system: DLD-1
[4] = test system: M14
[5] = test system: 786-0
[6] = test system: LXFL 529
[7] = test system: SR
[8] = test system: HL-60
[9] = test system: COLO 205
[10] = test system: SF-268
[11] = test system: CCRF-CEM
[12] = test system: A549
[13] = test system: SK-OV-3
[14] = test system: SK-MEL-2
[15] = test system: EKVX
[16] = test system: HCC 2998
[17] = test system: OVCAR-3
[18] = test system: SNB-78
[19] = test system: UACC-62
[20] = test system: NCI-H226
[21] = test system: IGROV-1
[22] = test system: HT-29
[23] = test system: SK-MEL-5
[24] = test system: M19-MEL
[25] = test system: NCI-H460
[26] = test system: Malme-3M
[27] = test system: DMS-273
[28] = test system: OVCAR-8
[29] = test system: KM-20L2
[30] = test system: HCT-15
[31] = test system: LOX IMVI
[32] = test system: K562
[33] = test system: ACHN
[34] = test system: KM12
[35] = test system: HOP-62
[36] = test system: OVCAR-4
[37] = test system: MOLT-4
[38] = test system: XF498
[39] = test system: SNB-75
[40] = test system: SN12C
[41] = test system: U-251
[42] = test system: UO-31
[43] = test system: HOP-92
[44] = test system: UACC-257
[45] = test system: SNB-19
[46] = test system: NCI-H522
[47] = test system: RXF 393
[48] = test system: SK-MEL-28
[49] = test system: HCT-116
[50] = test system: SF-539
[51] = test system: NCI-H23
[52] = test system: SF-295
[53] = test system: RPMI-8226
[54] = test system: DMS-114
[55] = test system: A498

Measured: GI50

CCCOP1(=O)C=C(O)C(Cl)=C(C)C1 (stereo unspecified)
inactive: [1] > 100 µM | [2] > 100 µM | [3] > 100 µM | [4] > 100 µM | [5] > 100 µM | [6] > 100 µM | [7] > 100 µM | [8] > 100 µM | [9] > 100 µM | [10] > 100 µM | [11] > 100 µM | [12] > 100 µM | [13] > 100 µM | [14] 40.6 µM | [15] > 100 µM | [16] > 100 µM | [17] > 100 µM | [18] > 100 µM | [19] > 100 µM | [20] > 100 µM | [21] > 100 µM | [22] > 100 µM | [23] > 100 µM | [24] > 100 µM | [25] > 100 µM | [26] > 100 µM | [27] > 100 µM | [28] > 100 µM | [29] > 100 µM | [31] > 100 µM | [32] > 100 µM | [33] > 100 µM | [34] 41.2 µM | [35] > 100 µM | [36] > 100 µM | [37] > 100 µM | [38] > 100 µM | [39] > 100 µM | [40] > 100 µM | [41] > 100 µM | [42] > 100 µM | [43] > 100 µM | [44] > 100 µM | [45] > 100 µM | [46] > 100 µM | [47] > 100 µM | [48] > 100 µM | [49] > 100 µM | [50] > 100 µM | [51] > 100 µM | [52] > 100 µM
> 100 µM: [30]

O=C1C2c3[nH]c4ccccc4c3C3CCCC3C2C(=O)N1c1ccccc1 (stereo unspecified)
78 µM: [30]
inactive: [53] > 100 µM | [1] > 100 µM | [2] 74.1 µM | [3] > 100 µM | [4] > 100 µM | [5] > 100 µM | [6] > 100 µM | [7] > 100 µM | [9] > 100 µM | [10] > 100 µM | [11] > 100 µM | [12] > 100 µM | [13] > 100 µM | [15] > 100 µM | [16] > 100 µM | [17] > 100 µM | [18] > 100 µM | [19] > 100 µM | [21] > 100 µM | [22] > 100 µM | [23] > 100 µM | [24] > 100 µM | [25] 91.8 µM | [26] > 100 µM | [27] > 100 µM | [28] 61.8 µM | [31] > 100 µM | [32] > 100 µM | [33] > 100 µM | [34] > 100 µM | [54] > 100 µM | [36] 17.1 µM | [37] > 100 µM | [38] 12 µM | [39] 40.6 µM | [40] > 100 µM | [41] > 100 µM | [55] > 100 µM | [47] > 100 µM | [48] > 100 µM | [50] > 100 µM | [51] > 100 µM | [52] > 100 µM

— ChEMBL document CHEMBL1201862, “PubChem BioAssay data set” (2004)
